Results published in patent US20250179059A1 (The Regents of the University of California, priority 2021, published 2025).
Read-outs that look alike come from different tables or passages of the source.

Legend:
[1] = molecular target: T1, human BRD4 bromodomain II (Homo sapiens, UniProt O60885); assay: Bromodomain binding assay (AlphaScreen), BRD4 BDII
T1 construct: human BRD4 bromodomain II [based on Genbank NM_058243, residues 349-460]; host or cells: E. coli
Method in brief: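 Compounds (10-point, 3-fold series) were preincubated 30 min at room temperature with E. coli-expressed N-terminal His6-tagged BRD4 BDII (residues 349-460) or BDI (residues 44-170) in 50 mM HEPES pH 7.5, 100 mM NaCl, 0.05% CHAPS, 0.1% BSA, 1% DMSO. Displacement of biotinylated tetra-acetylated H4 1-21 peptide was read by AlphaScreen; IC50 from curve fitting.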

[2] = system: human SKM-1 acute myeloid leukemia cells; assay: SKM-1 antiproliferation cell-based assay (ATPlite)
Method in brief: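 Log-phase cells in RPMI 1640/15% FBS were seeded at 34722 cells/mL and exposed for 4 days to nine-concentration DMSO serial dilutions in triplicate. Viability was read as ATP luminescence (ATPlite 1step), and IC50 values came from variable-slope non-linear regression.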

[3] = AlphaScreen assay, Table C2, read-out: BRD4 BDII IC50
[4] = Homo sapiens, SKM-1, 96 h, SKM-1 antiproliferation assay, 4 days, Table C2
[5] = BRD4 BDII AlphaScreen assay, read-out: BRD4 BD2 IC50
[6] = Homo sapiens, SKM-1, SKM-1 antiproliferation assay

| SMILES | IC50 [1, 3] [nM] | GI50 [2, 4] [nM] | IC50 [1, 5] [nM] | GI50 [2, 6] [nM] | GI50 ([2]; SKM-1 antiproliferation assay) [nM] |
| --- | --- | --- | --- | --- | --- |
| CC(C)N1CCN(c2cc(-c3cc(F)cc(-c4ccc(-n5ccn(C)c5=O)c(Cl)c4)c3O)cn3ccnc23)CC1 [Example 670, 1-(3-chloro-5′-fluoro-2′-hydroxy-3′-(8-(4-isopropylpiperazin-1-yl)imidazo[1,2-a]pyridin-6-yl)-[1,1′-biphenyl]-4-yl)-3-methyl-1H-imidazol-2(3H)-one] | 0.01 to 1 | 0.3 to 30 |  |  |  |
| Cc1cc(-c2ccc(-n3ccn(C)c3=O)c(Cl)c2)c(O)c(-c2cc(N3CC[C@H](N)C3)c3nc[nH]c3c2)c1 [Example 564] | 0.01 to 1 | 0.3 to 30 |  |  |  |
| CC(=O)Nc1ccc(-c2cccc(-c3cc(OC4CCC(N)CC4)nc(N4CCNCC4)c3)c2O)cc1F (stereo not drawn) [Example 375, N-(3′-(2-((4-aminocyclohexyl)oxy)-6-(piperazin-1-yl)pyridin-4-yl)-3-fluoro-2′-hydroxy-[1,1′-biphenyl]-4-yl)acetamide] | 10 to 100 | 300 to 3000 |  |  |  |
| CN1CCN(c2c(Cl)cc(-c3cc(F)cc(-c4ccnc(N5CCNCC5)c4)c3O)cc2C#N)C1=O [Example 426, 5-chloro-5′-fluoro-2′-hydroxy-4-(3-methyl-2-oxoimidazolidin-1-yl)-3′-(2-(piperazin-1-yl)pyridin-4-yl)-[1,1′-biphenyl]-3-carbonitrile] | > 100 | ≥ 3000 |  |  |  |
| O=C1CCCN1c1ccc(-c2cccc(-c3ccnc(N4CC5(CNC5)C4)c3)c2O)cc1F [Example 284, 1-(3′-(2-(2,6-diazaspiro[3.3]heptan-2-yl)pyridin-4-yl)-3-fluoro-2′-hydroxy-[1,1′-biphenyl]-4-yl)pyrrolidin-2-one] | 10 to 100 | 300 to 3000 |  |  |  |
| CN1CCN(c2ccc(-c3cc(-c4ccccc4)cc(-c4ccnc(N5CCNCC5)c4)c3O)cc2Cl)C1=O [Example 318, 1-(3-chloro-6′-hydroxy-5′-(2-(piperazin-1-yl)pyridin-4-yl)-[1,1′:3′,1″-terphenyl]-4-yl)-3-methylimidazolidin-2-one] | > 100 | 300 to 3000 |  |  |  |
| CN1CC2(C1)CN(c1cncc(-c3cc(F)cc(-c4ccc(-n5ccn(C)c5=O)c(Cl)c4)c3O)c1)C2 [Example 488, 1-(3-chloro-5′-fluoro-2′-hydroxy-3′-(5-(6-methyl-2,6-diazaspiro[3.3]heptan-2-yl)pyridin-3-yl)-[1,1′-biphenyl]-4-yl)-3-methyl-1H-imidazol-2(3H)-one] | 1 to 10 | 0.3 to 30 |  |  |  |
| CN1CCN(c2ccc(-c3cccc(-c4cncc(N5CCNCC5)c4)c3O)cc2F)C1=O [Example 292, 1-(3-fluoro-2′-hydroxy-3′-(5-(piperazin-1-yl)pyridin-3-yl)-[1,1′-biphenyl]-4-yl)-3-methylimidazolidin-2-one] | 1 to 10 | 30 to 300 |  |  |  |
| C[C@@H]1CN(c2cc(-c3cc(F)cc(-c4ccc(-n5ccn(C)c5=O)c(Cl)c4)c3O)cc3[nH]nnc23)CCN1 [Example 536, (R)-1-(3-chloro-5′-fluoro-2′-hydroxy-3′-(4-(3-methylpiperazin-1-yl)-1H-benzo[d][1,2,3]triazol-6-yl)-[1,1′-biphenyl]-4-yl)-3-methyl-1H-imidazol-2(3H)-one] | 1 to 10 | 0.3 to 30 |  |  |  |
| Cc1cc(-c2ccc(-n3ccn(C)c3=O)c(Cl)c2)c(O)c(-c2cc(N3CCN[C@H](C)C3)c3cc[nH]c3c2)c1 [Example 567] | 1 to 10 | 0.3 to 30 |  |  |  |
| Cn1ccn(-c2ccc(-c3cc(F)cc(-c4cc(N5CC6CCC5CN6)c5cn[nH]c5c4)c3O)cc2Cl)c1=O (stereo not drawn) [Example 600, 1-(3′-(4-(2,5-diazabicyclo[2.2.2]octan-2-yl)-1H-indazol-6-yl)-3-chloro-5′-fluoro-2′-hydroxy-[1,1′-biphenyl]-4-yl)-3-methyl-1H-imidazol-2(3H)-one] | 1 to 10 | 0.3 to 30 |  |  |  |
| O=C1CCCCN1c1ccc(-c2cc(F)cc(-c3ccnc(N4CCNCC4)c3)c2O)cc1F [Example 280, 1-(3,5′-difluoro-2′-hydroxy-3′-(2-(piperazin-1-yl)pyridin-4-yl)-[1,1′-biphenyl]-4-yl)piperidin-2-one] | 10 to 100 | 300 to 3000 |  |  |  |
| CC(=O)Nc1ccc(-c2cccc(-c3cc(Cl)nc(N4CCNCC4)c3)c2O)cc1F [Example 226, N-(3′-(2-chloro-6-(piperazin-1-yl)pyridin-4-yl)-3-fluoro-2′-hydroxy-[1,1′-biphenyl]-4-yl)acetamide] | 1 to 10 | 300 to 3000 |  |  |  |

Further lines, results first:

| IC50 [1, 3] [nM] | GI50 [2, 4] [nM] | IC50 [1, 5] [nM] | GI50 [2, 6] [nM] | GI50 ([2]; SKM-1 antiproliferation assay) [nM] | SMILES |
| --- | --- | --- | --- | --- | --- |
|  |  | 1 to 10 | 0.3 to 30 |  | Cc1cc(-c2ccc(-n3ccn(C)c3=O)c(C)c2)c(O)c(-c2cccc(N3CCN(C(C)(C)C)CC3)c2)n1 [Example 1012, 1-(4-(2-(3-(4-(tert-butyl)piperazin-1-yl)phenyl)-3-hydroxy-6-methylpyridin-4-yl)-2-methylphenyl)-3-methyl-1H-imidazol-2(3H)-one] |
| 1 to 10 | 30 to 300 |  |  |  | Cn1cnn(-c2ccc(-c3cc(F)cc(-c4ccnc(N5CCNCC5)c4)c3O)cc2Cl)c1=O [Example 499, 1-(3-chloro-5′-fluoro-2′-hydroxy-3′-(2-(piperazin-1-yl)pyridin-4-yl)-[1,1′-biphenyl]-4-yl)-^4-methyl-1H-1,2,4-triazol-5(4H)-one] |
|  |  | 1 to 10 |  | 0.3 to 30 | Cc1cc(-c2ccc(-n3ccn(C)c3=O)c(Cl)c2)c(O)c(-c2cc(N3CCN(C(C)(C)C)CC3)c3nccn3c2)n1 [Example 989, 1-(4-(2-(8-(4-(tert-butyl)piperazin-1-yl)imidazo[1,2-a]pyridin-6-yl)-3-hydroxy-6-methylpyridin-4-yl)-2-chlorophenyl)-3-methyl-1H-imidazol-2(3H)-one] |
|  |  | 0.01 to 1 | 0.3 to 30 |  | Cc1cc(-c2ccc(-n3ccn(C)c3=O)c(Cl)c2)c(O)c(-c2cnc(N(C)C)c(N3CCN(C(C)(C)C)CC3)c2)n1 [Example 964, 1-(4-(5′-(4-(tert-butyl)piperazin-1-yl)-6′-(dimethylamino)-3-hydroxy-6-methyl-[2,3′-bipyridin]-4-yl)-2-chlorophenyl)-3-methyl-1H-imidazol-2(3H)-one] |
|  |  | 0.01 to 1 |  | 30 to 300 | Cn1ccn(-c2ccc(-c3cc(F)cc(-c4ccnc(N5CC(F)(F)[C@@](C)(O)C5)c4)c3O)cc2Cl)c1=O [Example 881] |
| > 100 | 300 to 3000 |  |  |  | Cn1ccn(-c2ccc(-c3cc(F)cc(-c4ccnc(N5CCC(C)(NS(C)(=O)=O)C5)c4)c3O)cc2Cl)c1=O (stereo not drawn) [Example 792, N-(1-(4-(3′-chloro-5-fluoro-2-hydroxy-4′-(3-methyl-2-oxo-2,3-dihydro-1H-imidazol-1-yl)-[1,1′-biphenyl]-3-yl)pyridin-2-yl)-3-methylpyrrolidin-3-yl)methanesulfonamide] |
|  |  | 0.01 to 1 | 0.3 to 30 |  | Cc1cc(-c2ccc(-n3ccn(C)c3=O)c(Cl)c2)c(O)c(-c2ccnc(N3CCC4(CCC(=O)N4)C3)c2)n1 (stereo not drawn) [Example 1032, 7-(4-(3-chloro-4-(3-methyl-2-oxo-2,3-dihydro-1H-imidazol-1-yl)phenyl)-3-hydroxy-6-methyl-[2,4′-bipyridin]-2′'-yl)-1,7-diazaspiro[4.4]nonan-2-one] |
| 0.01 to 1 | 0.3 to 30 |  |  |  | Cn1ccn(-c2ccc(-c3cc(F)cc(-c4ccnc(N5CCCC6(CCN6)C5)c4)c3O)cc2Cl)c1=O (stereo not drawn) [Example 688, 1-(3′-(2-(1,6-diazaspiro[3.5]nonan-6-yl)pyridin-4-yl)-3-chloro-5′-fluoro-2′-hydroxy-[1,1′-biphenyl]-4-yl)-3-methyl-1H-imidazol-2(3H)-one] |
|  |  | 1 to 10 | 0.3 to 30 |  | Cn1ccn(-c2ccc(-c3cc(F)cc(-c4ccnc(N5CC(C)(O)C(F)(F)C5)c4)c3O)cc2Cl)c1=O (stereo not drawn) [Example 861] |
| 0.01 to 1 | 30 to 300 |  |  |  | CO[C@H]1CCN(c2cc(-c3cc(F)cc(-c4ccc(-n5ccn(C)c5=O)c(Cl)c4)c3O)ccn2)C1 [Example 691, (S)-1-(3-chloro-5′-fluoro-2′-hydroxy-3′-(2-(3-methoxypyrrolidin-1-yl)pyridin-4-yl)-[1,1′-biphenyl]-4-yl)-3-methyl-1H-imidazol-2(3H)-one] |
| 0.01 to 1 | 0.3 to 30 |  |  |  | Cn1ccn(-c2ccc(-c3cc(F)cc(-c4ccnc(N5CCN[C@H](CC#N)C5)c4)c3O)cc2Cl)c1=O [Example 698, (R)-2-(4-(4-(3′-chloro-5-fluoro-2-hydroxy-4′-(3-methyl-2-oxo-2,3-dihydro-1H-imidazol-1-yl)-[1,1′-biphenyl]-3-yl)pyridin-2-yl)piperazin-2-yl)acetonitrile] |
|  |  | 1 to 10 | 0.3 to 30 |  | Cc1cc(-c2ccc(-n3ccn(C)c3=O)c(Cl)c2)c(O)c(-c2ccnc(N3CCN(C(C)(C)C)CC3)c2)n1 [Example 998, 1-(4-(2′-(4-(tert-butyl)piperazin-1-yl)-3-hydroxy-6-methyl-[2,4′-bipyridin]-4-yl)-2-chlorophenyl)-3-methyl-1H-imidazol-2(3H)-one] |
| 0.01 to 1 | 0.3 to 30 |  |  |  | Cn1ccn(-c2ccc(-c3cc(F)cc(-c4ccnc(N5CCC(N)(CO)C5)c4)c3O)cc2Cl)c1=O (stereo not drawn) [Example 750, 1-(3′-(2-(3-amino-3-(hydroxymethyl)pyrrolidin-1-yl)pyridin-4-yl)-3-chloro-5′-fluoro-2′-hydroxy-[1,1′-biphenyl]-4-yl)-3-methyl-1H-imidazol-2(3H)-one] |
| 0.01 to 1 | 0.3 to 30 |  |  |  | Cc1ncc(-c2cc(F)cc(-c3ccc(-n4ccn(C)c4=O)c(Cl)c3)c2O)cc1N1CCN(C(C)(C)C)CC1 [Example 791, 1-(3′-(5-(4-(tert-butyl)piperazin-1-yl)-6-methylpyridin-3-yl)-3-chloro-5′-fluoro-2′-hydroxy-[1,1′-biphenyl]-4-yl)-3-methyl-1,3-dihydro-2H-imidazol-2-one] |
